The target in one test is T1, human BNaC4 (Homo sapiens, UniProt Q96FT7).
T1 sequence (Q96FT7 1-539): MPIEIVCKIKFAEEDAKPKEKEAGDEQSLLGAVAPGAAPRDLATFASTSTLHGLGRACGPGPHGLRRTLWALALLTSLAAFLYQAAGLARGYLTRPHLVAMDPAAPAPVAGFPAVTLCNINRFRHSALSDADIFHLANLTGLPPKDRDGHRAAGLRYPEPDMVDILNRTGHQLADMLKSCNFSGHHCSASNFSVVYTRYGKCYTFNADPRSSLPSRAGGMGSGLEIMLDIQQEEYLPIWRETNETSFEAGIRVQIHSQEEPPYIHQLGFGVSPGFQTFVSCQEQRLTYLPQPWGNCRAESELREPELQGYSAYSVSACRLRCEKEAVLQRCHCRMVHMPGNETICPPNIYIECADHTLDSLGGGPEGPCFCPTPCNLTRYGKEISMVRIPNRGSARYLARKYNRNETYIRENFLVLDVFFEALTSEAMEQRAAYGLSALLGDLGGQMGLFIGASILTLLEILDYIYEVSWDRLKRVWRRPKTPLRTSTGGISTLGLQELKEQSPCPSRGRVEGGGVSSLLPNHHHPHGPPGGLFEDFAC
The test can be described thus: pH 5.5-induced whole cell current in Xenopus oocytes injected with human BNaC4 cRNA (two-electrode voltage clamp). It counts as cell-based. To be noted: 200 uM amiloride, bath application; oocytes injected with hBNaC4 cRNA; n=3. Here is the method:
Xenopus laevis oocytes were prepared and injected using standard methods previously described and known in the art (Fraser et al., 1993). Ovarian lobes from adult female Xenopus laevis (Nasco, Fort Atkinson, Wis.) were teased apart, rinsed several times in nominally Ca-free saline containing: 82.5 mM NaCl, 2.5 mM KCl, 1 mM MgCl2, 5 mM HEPES, adjusted to pH 7.0 with NaOH (OR-2), and gently shaken in OR-2 containing 0.2% collagenase Type 1 (ICN Biomedicals, Aurora, Ohio) for 2-5 hours. When approximately 50% of the follicular layers were removed, Stage V and VI oocytes were selected and rinsed in media consisting of 75% OR-2 and 25% ND-96. […]
Oocytes were injected with 50 nl of the human BNaC4 RNA (0.002-5 ng). […] Whole cell agonist (protons)-induced currents were measured 1-6 days after injection with a conventional two-electrode voltage clamp (GeneClamp50O, Axon Instruments, Foster City, Calif.) using standard methods previously described and known in the art (Dascal, Nathan (1987) The use of Xenopus oocytes for the study of ion channels. CRC Critical reviews in Biochemistry 22:317-387). […]
Functional expression of human BNaC4 in Xenopus oocytes is shown: activation by pH 5.5. […] The oocyte was recorded 3 days after injection of 2 ng hBNaC CRNA. […] The BNaC4 oocytes tested produced currents of at least +60 nA (measured at +80 mV at the end of a voltage ramp protocol) (range +60 to +1240 nA). […]

The next test deals with T2, ASIC1A (Rattus norvegicus, UniProt P55926).
T2 sequence (P55926 1-526): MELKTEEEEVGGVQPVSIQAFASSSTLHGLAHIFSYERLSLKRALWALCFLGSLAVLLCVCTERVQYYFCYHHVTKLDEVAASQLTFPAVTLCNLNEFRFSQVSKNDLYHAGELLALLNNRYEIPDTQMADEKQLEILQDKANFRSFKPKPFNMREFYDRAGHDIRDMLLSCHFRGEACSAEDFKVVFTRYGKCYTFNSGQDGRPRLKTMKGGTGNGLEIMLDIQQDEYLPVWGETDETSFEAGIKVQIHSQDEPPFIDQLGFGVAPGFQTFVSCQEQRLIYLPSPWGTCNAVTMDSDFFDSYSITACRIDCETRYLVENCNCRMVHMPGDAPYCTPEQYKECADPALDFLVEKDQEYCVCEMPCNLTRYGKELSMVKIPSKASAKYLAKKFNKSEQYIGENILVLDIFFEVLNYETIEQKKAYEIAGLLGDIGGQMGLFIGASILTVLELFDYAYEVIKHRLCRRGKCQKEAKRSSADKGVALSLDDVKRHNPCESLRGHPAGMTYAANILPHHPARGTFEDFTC
To be noted: read-out: Amiloride sensitivity, KD; cited from earlier work.

These results are taken from patent US6548270B1, “DNA encoding human acid-sensing ion channel BNaC4 (ASIC4)” (Ortho-McNeil Pharmaceutical, Inc., priority 2000, dated 2003).

Regarding `N=C(N)NC(=O)c1nc(Cl)c(N)nc1N` [amiloride], on human BNaC4, the “block of the pH5.5-induced fast increase in conductance” value was 40+/−13%. Also, the Kd on ASIC1A is approximately 10 µM.

In general, Kd refers to the equilibrium constant for the complex coming apart.
